From publication PMC7156458, “Synthetic biology based construction of biological activity-related library of fungal decalin-containing diterpenoid pyrones” (Nature Communications, 2020)

Molecular target: Aβ42 (Homo sapiens, UniProt P05067)
Assay: Th-T (thioflavin-T) assay of Aβ42 aggregation
Type: biochemical
Details: for Th-T fluorescence of Aβ42 (sheet Fig. 7a), mean of three wells: head suffix _50 (concentration 50); for Th-T assay plate reading, mean of three wells (Supplementary Fig. 47): source data, Ab alone and No Ab as controls; for Th-T fluorescence, mean of three wells: Supplementary Fig. 47 source data

Aβ42, sequence (P05067 672-713): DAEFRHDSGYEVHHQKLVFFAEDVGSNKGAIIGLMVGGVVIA

## C=C1CC[C@@H]2[C@](C)(CC[C@H]3O[C@H](C=C(C)C)C[C@@]23C)[C@@H]1Cc1c(OC)oc(CO)c(C)c1=O [Compound 20]
Reading M73
  Th-T fluorescence of Aβ42 (sheet Fig. 7a), mean of three wells: 2.113
Reading M74
  Th-T fluorescence of Aβ42 (sheet Fig. 7a), mean of three wells: 2.11
Reading M75
  Th-T fluorescence of Aβ42 (sheet Fig. 7a), mean of three wells: 2.1032
Reading M76
  Th-T fluorescence of Aβ42 (sheet Fig. 7a), mean of three wells: 2.123
Reading M77
  Th-T fluorescence of Aβ42 (sheet Fig. 7a), mean of three wells: 2.122
Reading M78
  Th-T fluorescence of Aβ42 (sheet Fig. 7a), mean of three wells: 2.117
Reading M79
  Th-T fluorescence of Aβ42 (sheet Fig. 7a), mean of three wells: 2.1153
Reading M80
  Th-T fluorescence of Aβ42 (sheet Fig. 7a), mean of three wells: 2.1
Reading M81
  Th-T fluorescence of Aβ42 (sheet Fig. 7a), mean of three wells: 2.1
Reading M82
  Th-T fluorescence of Aβ42 (sheet Fig. 7a), mean of three wells: 2.102
Reading M83
  Th-T fluorescence of Aβ42 (sheet Fig. 7a), mean of three wells: 2.096
Reading M84
  Th-T fluorescence of Aβ42 (sheet Fig. 7a), mean of three wells: 2.077
Measurement M1
  Th-T assay plate reading, mean of three wells (Supplementary Fig. 47): 0.2292
Measurement M2
  Th-T assay plate reading, mean of three wells (Supplementary Fig. 47): 0.2238
Measurement M3
  Th-T assay plate reading, mean of three wells (Supplementary Fig. 47): 0.2417
Measurement M4
  Th-T assay plate reading, mean of three wells (Supplementary Fig. 47): 0.2884
Measurement M5
  Th-T assay plate reading, mean of three wells (Supplementary Fig. 47): 0.3754
Measurement M6
  Th-T assay plate reading, mean of three wells (Supplementary Fig. 47): 0.3834
Measurement M7
  Th-T assay plate reading, mean of three wells (Supplementary Fig. 47): 0.4602
Measurement M8
  Th-T assay plate reading, mean of three wells (Supplementary Fig. 47): 0.4852
Measurement M9
  Th-T assay plate reading, mean of three wells (Supplementary Fig. 47): 0.5189
Measurement M10
  Th-T assay plate reading, mean of three wells (Supplementary Fig. 47): 0.5747
Measurement M11
  Th-T assay plate reading, mean of three wells (Supplementary Fig. 47): 0.6382
Measurement M12
  Th-T assay plate reading, mean of three wells (Supplementary Fig. 47): 0.9536
Measurement M13
  Th-T assay plate reading, mean of three wells (Supplementary Fig. 47): 1.7846
Measurement M14
  Th-T assay plate reading, mean of three wells (Supplementary Fig. 47): 2.679
Measurement M15
  Th-T assay plate reading, mean of three wells (Supplementary Fig. 47): 3.243
Measurement M16
  Th-T assay plate reading, mean of three wells (Supplementary Fig. 47): 3.548
Reading M107, compound at 10 (head suffix _10)
  Th-T fluorescence, mean of three wells (Fig. 7a): 3.243
Reading M107, compound at 20 (head suffix _20)
  Th-T fluorescence, mean of three wells (Fig. 7a): 3.218
Reading M107, compound at 50 (head suffix _50)
  Th-T fluorescence, mean of three wells (Fig. 7a): 2.093
Reading M108, compound at 10 (head suffix _10)
  Th-T fluorescence, mean of three wells (Fig. 7a): 3.266
Reading M108, compound at 20 (head suffix _20)
  Th-T fluorescence, mean of three wells (Fig. 7a): 3.22
Reading M108, compound at 50 (head suffix _50)
  Th-T fluorescence, mean of three wells (Fig. 7a): 2.097
Reading M109, compound at 10 (head suffix _10)
  Th-T fluorescence, mean of three wells (Fig. 7a): 3.248
Reading M109, compound at 20 (head suffix _20)
  Th-T fluorescence, mean of three wells (Fig. 7a): 3.217
Reading M109, compound at 50 (head suffix _50)
  Th-T fluorescence, mean of three wells (Fig. 7a): 2.11
Reading M110, compound at 10 (head suffix _10)
  Th-T fluorescence, mean of three wells (Fig. 7a): 3.266
Reading M110, compound at 20 (head suffix _20)
  Th-T fluorescence, mean of three wells (Fig. 7a): 3.23
Reading M110, compound at 50 (head suffix _50)
  Th-T fluorescence, mean of three wells (Fig. 7a): 2.1005
Reading M111, compound at 10 (head suffix _10)
  Th-T fluorescence, mean of three wells (Fig. 7a): 3.255
Reading M111, compound at 20 (head suffix _20)
  Th-T fluorescence, mean of three wells (Fig. 7a): 3.22
Reading M111, compound at 50 (head suffix _50)
  Th-T fluorescence, mean of three wells (Fig. 7a): 2.105
Reading M112, compound at 10 (head suffix _10)
  Th-T fluorescence, mean of three wells (Fig. 7a): 3.256
Reading M112, compound at 20 (head suffix _20)
  Th-T fluorescence, mean of three wells (Fig. 7a): 3.191
Reading M112, compound at 50 (head suffix _50)
  Th-T fluorescence, mean of three wells (Fig. 7a): 2.0956
Reading M113, compound at 10 (head suffix _10)
  Th-T fluorescence, mean of three wells (Fig. 7a): 3.234
Reading M113, compound at 20 (head suffix _20)
  Th-T fluorescence, mean of three wells (Fig. 7a): 3.181
Reading M113, compound at 50 (head suffix _50)
  Th-T fluorescence, mean of three wells (Fig. 7a): 2.0902
Reading M114, compound at 10 (head suffix _10)
  Th-T fluorescence, mean of three wells (Fig. 7a): 3.244
Reading M114, compound at 20 (head suffix _20)
  Th-T fluorescence, mean of three wells (Fig. 7a): 3.188
Reading M114, compound at 50 (head suffix _50)
  Th-T fluorescence, mean of three wells (Fig. 7a): 2.0998
Reading M115, compound at 10 (head suffix _10)
  Th-T fluorescence, mean of three wells (Fig. 7a): 3.222
Reading M115, compound at 20 (head suffix _20)
  Th-T fluorescence, mean of three wells (Fig. 7a): 3.199
Reading M115, compound at 50 (head suffix _50)
  Th-T fluorescence, mean of three wells (Fig. 7a): 2.1006
Reading M116, compound at 10 (head suffix _10)
  Th-T fluorescence, mean of three wells (Fig. 7a): 3.244
Reading M116, compound at 20 (head suffix _20)
  Th-T fluorescence, mean of three wells (Fig. 7a): 3.193
Reading M116, compound at 50 (head suffix _50)
  Th-T fluorescence, mean of three wells (Fig. 7a): 2.109
Reading M117, compound at 10 (head suffix _10)
  Th-T fluorescence, mean of three wells (Fig. 7a): 3.211
Reading M117, compound at 20 (head suffix _20)
  Th-T fluorescence, mean of three wells (Fig. 7a): 3.166
Reading M117, compound at 50 (head suffix _50)
  Th-T fluorescence, mean of three wells (Fig. 7a): 2.104
Reading M118, compound at 10 (head suffix _10)
  Th-T fluorescence, mean of three wells (Fig. 7a): 3.228
Reading M118, compound at 20 (head suffix _20)
  Th-T fluorescence, mean of three wells (Fig. 7a): 3.17
Reading M118, compound at 50 (head suffix _50)
  Th-T fluorescence, mean of three wells (Fig. 7a): 2.102
Reading M119, compound at 10 (head suffix _10)
  Th-T fluorescence, mean of three wells (Fig. 7a): 3.2146
Reading M119, compound at 20 (head suffix _20)
  Th-T fluorescence, mean of three wells (Fig. 7a): 3.1938
Reading M119, compound at 50 (head suffix _50)
  Th-T fluorescence, mean of three wells (Fig. 7a): 2.1065
Reading M120, compound at 10 (head suffix _10)
  Th-T fluorescence, mean of three wells (Fig. 7a): 3.221
Reading M120, compound at 20 (head suffix _20)
  Th-T fluorescence, mean of three wells (Fig. 7a): 3.171
Reading M120, compound at 50 (head suffix _50)
  Th-T fluorescence, mean of three wells (Fig. 7a): 2.103
Reading M121, compound at 10 (head suffix _10)
  Th-T fluorescence, mean of three wells (Fig. 7a): 3.196
Reading M121, compound at 20 (head suffix _20)
  Th-T fluorescence, mean of three wells (Fig. 7a): 3.1528
Reading M121, compound at 50 (head suffix _50)
  Th-T fluorescence, mean of three wells (Fig. 7a): 2.099
Reading M122, compound at 10 (head suffix _10)
  Th-T fluorescence, mean of three wells (Fig. 7a): 3.2052
Reading M122, compound at 20 (head suffix _20)
  Th-T fluorescence, mean of three wells (Fig. 7a): 3.15
Reading M122, compound at 50 (head suffix _50)
  Th-T fluorescence, mean of three wells (Fig. 7a): 2.114
Reading M123, compound at 10 (head suffix _10)
  Th-T fluorescence, mean of three wells (Fig. 7a): 3.204
Reading M123, compound at 20 (head suffix _20)
  Th-T fluorescence, mean of three wells (Fig. 7a): 3.156
Reading M123, compound at 50 (head suffix _50)
  Th-T fluorescence, mean of three wells (Fig. 7a): 2.111
Reading M124, compound at 10 (head suffix _10)
  Th-T fluorescence, mean of three wells (Fig. 7a): 3.218
Reading M124, compound at 20 (head suffix _20)
  Th-T fluorescence, mean of three wells (Fig. 7a): 3.1455
Reading M124, compound at 50 (head suffix _50)
  Th-T fluorescence, mean of three wells (Fig. 7a): 2.111
Reading M125, compound at 10 (head suffix _10)
  Th-T fluorescence, mean of three wells (Fig. 7a): 3.1992
Reading M125, compound at 20 (head suffix _20)
  Th-T fluorescence, mean of three wells (Fig. 7a): 3.1234
Reading M125, compound at 50 (head suffix _50)
  Th-T fluorescence, mean of three wells (Fig. 7a): 2.096
Reading M126, compound at 10 (head suffix _10)
  Th-T fluorescence, mean of three wells (Fig. 7a): 3.205
Reading M126, compound at 20 (head suffix _20)
  Th-T fluorescence, mean of three wells (Fig. 7a): 3.128
Reading M126, compound at 50 (head suffix _50)
  Th-T fluorescence, mean of three wells (Fig. 7a): 2.099
Reading M127, compound at 10 (head suffix _10)
  Th-T fluorescence, mean of three wells (Fig. 7a): 3.195
Reading M127, compound at 20 (head suffix _20)
  Th-T fluorescence, mean of three wells (Fig. 7a): 3.121
Reading M127, compound at 50 (head suffix _50)
  Th-T fluorescence, mean of three wells (Fig. 7a): 2.104
Reading M128, compound at 10 (head suffix _10)
  Th-T fluorescence, mean of three wells (Fig. 7a): 3.198
Reading M128, compound at 20 (head suffix _20)
  Th-T fluorescence, mean of three wells (Fig. 7a): 3.11
Reading M128, compound at 50 (head suffix _50)
  Th-T fluorescence, mean of three wells (Fig. 7a): 2.109
time-course reading M97
  Th-T fluorescence, mean of three wells: 4.216
time-course reading M98
  Th-T fluorescence, mean of three wells: 4.216
time-course reading M99
  Th-T fluorescence, mean of three wells: 4.236
time-course reading M100
  Th-T fluorescence, mean of three wells: 4.238
time-course reading M101
  Th-T fluorescence, mean of three wells: 4.225
time-course reading M102
  Th-T fluorescence, mean of three wells: 4.201
time-course reading M103
  Th-T fluorescence, mean of three wells: 4.222
time-course reading M104
  Th-T fluorescence, mean of three wells: 4.203
time-course reading M105
  Th-T fluorescence, mean of three wells: 4.225
time-course reading M106
  Th-T fluorescence, mean of three wells: 4.21
time-course reading M107
  Th-T fluorescence, mean of three wells: 4.216
time-course reading M108
  Th-T fluorescence, mean of three wells: 4.2224
time-course reading M109
  Th-T fluorescence, mean of three wells: 4.227
time-course reading M110
  Th-T fluorescence, mean of three wells: 4.248
time-course reading M111
  Th-T fluorescence, mean of three wells: 4.24
time-course reading M112
  Th-T fluorescence, mean of three wells: 4.225
time-course reading M113
  Th-T fluorescence, mean of three wells: 4.225
time-course reading M114
  Th-T fluorescence, mean of three wells: 4.212
time-course reading M115
  Th-T fluorescence, mean of three wells: 4.199
time-course reading M116
  Th-T fluorescence, mean of three wells: 4.199
